Laboratory results as given in patent US20150094321A1, “COMBINATION” (GlaxoSmithKline LLC, priority 2009, published 2015).

Assays:
Experiment in all cases: Cell line proliferation study
Assay type in all cases: cell-based, human
Colo201 = settings: Colo201, colon; for IC50: Homo sapiens, COLO 201, 72 hours, read-out: gIC50
Protocol: (§1) In a separate study, combination drug tests with Compounds A and B were conducted using a panel of cell lines from human colon cancers (n=26), lung cancers (n=15) and pancreatic cancers (n=6). Cell lines were obtained from commercial vendors (ATCC and DSMZ). Cell lines were grown in RPMI-1640 supplemented with 2 mM glutamine, 1 mM sodium pyruvate and 10% fetal bovine serum (except for Capan-1 and HuP-T4 which were grown with 20% fetal bovine serum) and maintained at 37° C. and 5% CO2 in a humid incubator. Assays were performed in 384 well microtiter plates with optimum seeding densities for each cell line.
(§2) The test compounds were prepared as 10 mM stocks in 100% DMSO. Further dilutions of the compounds were made in DMSO. Compound A was diluted horizontally in a separate 96 well microtiter plate in rows D-G using a 3-fold dilution series for 10 dilution points. Compound B was similarly diluted horizontally in a 96 well microtiter plate in rows B-E using a 3-fold dilution series for 10 dilution points.
(§3) The two compounds were combined using equal volumes from each drug plate into cell culture media. […] Both Compound A and Compound B were individually titrated in rows B and C (for Compound B) and rows F and G (for Compound A) of the merged drug plate.
(§4) A 1:10 dilution of the drugs was performed in cell culture media prior to addition to the cells.
(§5) The final concentration range for the test compounds was 250 to 0.013 nM for Compound A and 1000 to […] for Compound B. The positive control consisted of culture media with DMSO at 0.1% and cells. The negative control consisted of culture media with DMSO at 0.1%. The cell lines were incubated at 37° C., 5% CO2 in humid air for 72 hours. Cell proliferation was measured using the CellTiter Glo (Promega) reagent according to the manufacturer's protocol. The plates are treated with CellTiter Glo solution and are analyzed for RLU (relative light units) using a Molecular Devices SpectraMax M5 plate reader.
(§6) The percent intensity values were used in model 205 of XLfit (IDBS, Inc.) in Microsoft Excel to calculate gIC50 values using a 4 parameter logistical fit. The midpoint of the growth window (the gIC50) falls half way between the number of cells at the time of compound addition (T=0) and the growth of control cells treated with DMSO at 72 hrs. The number of cells at time zero (T0) is divided from the intensity value at the bottom of the response curve (Ymin) to generate a measure for cell death (Ymin/T0). A value below 1 for Ymin/T0 indicates stronger potency to induce cell death with the treatment when compared to higher values. […]

NCIH23 = settings: NCIH23, lung; for IC50: Homo sapiens, NCI-H23, 72 hours, read-out: gIC50
Protocol: as §1, §2, §3, §4, §5, §6

NCIH460 = settings: NCIH460, lung; for IC50: Homo sapiens, NCI-H460, 72 hours, read-out: gIC50
Protocol: as §1, §2, §3, §4, §5, §6

SKMES1 = settings: SKMES1, lung; for IC50: Homo sapiens, SK-MES-1, 72 hours, read-out: gIC50
Protocol: as §1, §2, §3, §4, §5, §6

HCT-15 = settings: HC115, colon; for IC50: Homo sapiens, HCT-15, 72 hours, read-out: gIC50
Protocol: as §1, §2, §3, §4, §5, §6

DLD1 = settings: DLD1, colon; for IC50: Homo sapiens, DLD-1, 72 hours, read-out: gIC50
Protocol: as §1, §2, §3, §4, §5, §6

A549 = settings: A549, lung; for IC50: Homo sapiens, 72 hours, read-out: gIC50
Protocol: as §1, §2, §3, §4, §5, §6

Colo320HSR = settings: colon; for IC50: Homo sapiens, COLO-320-HSR, 72 hours, read-out: gIC50
Protocol: as §1, §2, §3, §4, §5, §6

NCIH520 = settings: NCIH520, lung; for IC50: Homo sapiens, NCI-H520, 72 hours, read-out: gIC50
Protocol: as §1, §2, §3, §4, §5, §6

NCIH2228 = settings: NCIH2228, lung; for IC50: Homo sapiens, NCI-H2228, 72 hours, read-out: gIC50
Protocol: as §1, §2, §3, §4, §5, §6

NCIH508 = settings: NCIH508, colon; for IC50: Homo sapiens, NCI-H508, 72 hours, read-out: gIC50
Protocol: as §1, §2, §3, §4, §5, §6

NCIH2170 = settings: NCIH2170, lung; for IC50: Homo sapiens, NCI-H2170, 72 hours, read-out: gIC50
Protocol: as §1, §2, §3, §4, §5, §6

SW1417 = settings: SW1417, colon; for IC50: Homo sapiens, 72 hours, read-out: gIC50
Protocol: as §1, §2, §3, §4, §5, §6

HCT116 = settings: HCT116, colon; for IC50: Homo sapiens, HCT-116, 72 hours, read-out: gIC50
Protocol: as §1, §2, §3, §4, §5, §6

HCC2998 = settings: HCC2998, colon; for IC50: Homo sapiens, HCC 2998, 72 hours, read-out: gIC50
Protocol: as §1, §2, §3, §4, §5, §6

NCIH358 = settings: NCIH358, lung; for IC50: Homo sapiens, NCI-H358, 72 hours, read-out: gIC50
Protocol: as §1, §2, §3, §4, §5, §6

NCIH747 = settings: NCIH747, colon; for IC50: Homo sapiens, NCI-H747, 72 hours, read-out: gIC50
Protocol: as §1, §2, §3, §4, §5, §6

Colo320DM = settings: colon; for IC50: Homo sapiens, COLO 320DM, 72 hours, read-out: gIC50
Protocol: as §1, §2, §3, §4, §5, §6

Compound	Ymin/T0 (Colo201)	IC50 (Colo201)	IC50 (NCIH23)	Ymin/T0 (NCIH23)	IC50 (NCIH460)	Ymin/T0 (NCIH460)	IC50 (SKMES1)	Ymin/T0 (SKMES1)	Ymin/T0 (HCT-15)	IC50 (HCT-15)	Ymin/T0 (DLD1)	IC50 (DLD1)	Ymin/T0 (A549)	IC50 (A549)	IC50 (Colo320HSR)	Ymin/T0 (Colo320HSR)	IC50 (NCIH520)	Ymin/T0 (NCIH520)	IC50 (NCIH2228)	Ymin/T0 (NCIH2228)	other results
CC(=O)Nc1cccc(-n2c(=O)n(C3CC3)c(=O)c3c(Nc4ccc(I)cc4F)n(C)c(=O)c(C)c32)c1 [Compound A, N-{3-[3-cyclopropyl-5-(2-fluoro-4-iodo-phenylamino)-6,8-dimethyl-2,4,7-trioxo-3,4,6,7-tetrahydro-2H-pyrido[4,3-d]pyrimidin-1-yl]phenyl}acetamide]	−8.96	0.004 µM	> 0.25 µM	36.3	0.063 µM	39.1	0.0804 µM	19.5	57.0	> 0.25 µM	397	0.342 µM	15.9	0.0129 µM	> 0.25 µM	78.4	> 0.25 µM	70.2	> 0.25 µM	39.7	IC50 (NCIH508): 0.0226 µM; Ymin/T0 (NCIH508): 15.22; IC50 (NCIH2170): > 0.25 µM; Ymin/T0 (NCIH2170): 59.5; IC50 (SW1417): 0.00286 µM; Ymin/T0 (SW1417): 16.19; Ymin/T0 (HCT116): 19.40; IC50 (HCT116): 0.0232 µM; Ymin/T0 (HCC2998): 2.13; IC50 (HCC2998): 0.0167 µM; IC50 (NCIH358): 0.0173 µM; Ymin/T0 (NCIH358): 10.7; IC50 (NCIH747): 0.00535 µM; Ymin/T0 (NCIH747): 5.55; IC50 (Colo320DM): > 0.25 µM; Ymin/T0 (Colo320DM): 81.01
Cn1ncc(Cl)c1-c1cc(C(=O)N[C@H](CN)Cc2ccc(F)c(F)c2)oc1Cl [Compound B, N-{(1S)-2-amino-1-[(3,4-difluorophenyl)methyl]ethyl}-5-chloro-4-(4-chloro-1-methyl-1H-pyrazol-5-yl)-2-furancarboxamide]	80.16	> 1 µM	> 1 µM	41.5	0.664 µM	20.8	> 1 µM	49.6	30.4	> 1 µM	29.0	> 1 µM	32.7	> 1 µM	> 1 µM	28.6	0.568 µM	15.0	> 1 µM	37.1	IC50 (NCIH508): 0.0682 µM; Ymin/T0 (NCIH508): 11.12; IC50 (NCIH2170): > 1 µM; Ymin/T0 (NCIH2170): 18.2; IC50 (SW1417): > 1 µM; Ymin/T0 (SW1417): 3.63; Ymin/T0 (HCT116): 25.31; IC50 (HCT116): > 1 µM; Ymin/T0 (HCC2998): −4.90; IC50 (HCC2998): 0.292 µM; IC50 (NCIH358): > 1 µM; Ymin/T0 (NCIH358): 37.2; IC50 (NCIH747): > 1 µM; Ymin/T0 (NCIH747): 23.79; IC50 (Colo320DM): > 1 µM; Ymin/T0 (Colo320DM): 9.81
